{"source": "ChEMBL document CHEMBL1212706", "about": "“A potent mechanism-inspired O-GlcNAcase inhibitor that blocks phosphorylation of tau in vivo” (Nat Chem Biol, 2008)", "key": {"[1]": {"system": "Saccharomyces cerevisiae", "assay": "Inhibition of Saccharomyces cerevisiae alpha-glucosidase"}, "[2]": {"biological_target": "T1, Beta-hexosaminidase (Vibrio cholerae serotype O1 (strain ATCC 39315 / El Tor Inaba N16961)) (UniProt Q9KU37)", "T1 sequence (whole entry)": "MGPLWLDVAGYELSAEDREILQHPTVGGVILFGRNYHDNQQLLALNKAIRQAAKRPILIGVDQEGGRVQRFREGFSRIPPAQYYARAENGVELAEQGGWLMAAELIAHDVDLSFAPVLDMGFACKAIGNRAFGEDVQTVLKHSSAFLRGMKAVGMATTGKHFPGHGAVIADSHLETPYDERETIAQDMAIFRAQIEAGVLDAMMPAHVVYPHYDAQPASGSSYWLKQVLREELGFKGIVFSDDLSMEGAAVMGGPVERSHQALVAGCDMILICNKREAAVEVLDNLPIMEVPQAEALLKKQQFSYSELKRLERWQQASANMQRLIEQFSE", "assay": "Inhibition of Vibrio cholerae glycoside hydrolase NagZ"}, "[3]": {"biological_target": "Beta-galactosidase (Kluyveromyces lactis) (UniProt P00723)", "sequence (P00723 whole entry)": "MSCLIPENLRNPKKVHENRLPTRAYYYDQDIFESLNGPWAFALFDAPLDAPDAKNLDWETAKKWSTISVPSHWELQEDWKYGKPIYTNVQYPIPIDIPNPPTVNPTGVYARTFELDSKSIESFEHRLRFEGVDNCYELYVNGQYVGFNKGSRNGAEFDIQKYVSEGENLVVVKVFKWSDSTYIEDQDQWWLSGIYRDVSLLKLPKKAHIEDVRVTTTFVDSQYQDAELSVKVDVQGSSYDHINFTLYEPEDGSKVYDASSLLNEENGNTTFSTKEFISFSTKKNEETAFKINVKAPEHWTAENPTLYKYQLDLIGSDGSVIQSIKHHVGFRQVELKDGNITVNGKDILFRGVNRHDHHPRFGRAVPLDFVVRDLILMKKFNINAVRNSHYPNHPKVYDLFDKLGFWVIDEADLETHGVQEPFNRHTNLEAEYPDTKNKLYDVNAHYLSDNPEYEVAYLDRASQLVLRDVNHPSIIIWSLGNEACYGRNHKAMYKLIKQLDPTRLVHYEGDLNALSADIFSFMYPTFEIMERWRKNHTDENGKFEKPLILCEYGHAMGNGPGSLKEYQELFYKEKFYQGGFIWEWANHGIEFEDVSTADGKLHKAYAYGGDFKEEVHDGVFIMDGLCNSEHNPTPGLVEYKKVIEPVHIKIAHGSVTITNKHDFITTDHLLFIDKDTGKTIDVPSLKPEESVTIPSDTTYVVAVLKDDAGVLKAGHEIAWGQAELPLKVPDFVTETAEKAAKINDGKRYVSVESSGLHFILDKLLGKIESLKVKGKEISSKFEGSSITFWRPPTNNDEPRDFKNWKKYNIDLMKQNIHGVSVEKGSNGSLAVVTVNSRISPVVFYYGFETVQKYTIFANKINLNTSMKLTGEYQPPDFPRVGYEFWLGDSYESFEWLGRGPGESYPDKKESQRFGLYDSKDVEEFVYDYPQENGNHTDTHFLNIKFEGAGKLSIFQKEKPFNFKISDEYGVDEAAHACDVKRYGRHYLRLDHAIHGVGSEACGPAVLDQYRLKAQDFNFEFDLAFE", "assay": "Inhibition of Kluyveromyces lactis glycoside hydrolase beta-galactosidase"}, "[4]": {"assay": "Inhibition of human lysosomal beta-hexosaminidase"}, "[5]": {"system": "Rattus norvegicus", "assay": "Increase in O-GlcNAc level in Sprague-Dawley rat brain pyramidal cell layer of CA1 region at 200 mg/kg, po by […]", "type": "functional, organism-based", "parameters": "dose 200 mg/kg"}, "[6]": {"system": "Canavalia ensiformis", "assay": "Inhibition of Canavalia ensiformis alpha-mannosidase"}, "[7]": {"biological_target": "T2, Alpha-galactosidase (Thermotoga maritima) (UniProt G4FEF4)", "T2 sequence (whole entry)": "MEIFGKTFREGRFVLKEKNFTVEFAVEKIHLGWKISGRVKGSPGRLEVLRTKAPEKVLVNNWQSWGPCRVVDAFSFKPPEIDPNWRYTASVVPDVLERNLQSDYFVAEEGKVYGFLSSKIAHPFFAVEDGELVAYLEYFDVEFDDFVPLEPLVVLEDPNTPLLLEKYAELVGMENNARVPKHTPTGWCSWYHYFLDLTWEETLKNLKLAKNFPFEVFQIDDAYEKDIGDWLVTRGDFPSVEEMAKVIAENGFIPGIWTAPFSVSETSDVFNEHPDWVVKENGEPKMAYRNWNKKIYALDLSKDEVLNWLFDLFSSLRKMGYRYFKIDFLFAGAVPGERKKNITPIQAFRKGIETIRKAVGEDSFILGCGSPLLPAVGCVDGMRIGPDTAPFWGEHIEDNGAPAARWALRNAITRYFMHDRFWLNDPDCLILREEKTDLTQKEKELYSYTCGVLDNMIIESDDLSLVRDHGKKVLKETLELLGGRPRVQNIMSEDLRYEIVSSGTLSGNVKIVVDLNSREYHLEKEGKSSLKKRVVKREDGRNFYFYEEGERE", "assay": "Inhibition of Thermotoga maritima alpha-galactosidase"}, "[8]": {"system": "PC-12", "assay": "Induction of O-GlcNAc level in NGF-differentiated rat PC12 cells after 24 hrs by Western blot analysis", "type": "functional, cell-based"}, "[9]": {"system": "PC-12", "assay": "Induction of O-GlcNAc level in NGF-differentiated rat PC12 cells after 24 hrs by densitometric analysis", "type": "functional, cell-based", "details": "PC-12, 24 h"}, "[10]": {"system": "PC-12", "assay": "Induction of O-GlcNAc level in NGF-differentiated rat PC12 cells at >25 uM by Western blot analysis", "type": "functional, cell-based", "details": "TDE = time-dependent effect"}, "[11]": {"system": "Rattus norvegicus", "assay": "Induction of O-GlcNAc level in rat at 50 mg/kg, iv by Western blot analysis", "type": "functional, organism-based", "parameters": "dose 50 mg/kg", "details": "TDE = time-dependent effect"}, "[12]": {"assay": "Inhibition of beta-hexosaminidase"}, "[13]": {"system": "PC-12", "assay": "Reduction in tau protein phosphorylation at Ser396 position in NGF-differentiated rat PC12 cells after 4 hrs by Western blot analysis relative to control", "type": "functional, cell-based"}, "[14]": {"system": "Rattus norvegicus", "assay": "Reduction in tau protein phosphorylation at Ser396 in Sprague-Dawley rat brain CA1 region at 200 mg/kg, po by […]", "type": "functional, organism-based", "parameters": "dose 200 mg/kg"}, "[15]": {"system": "PC-12", "assay": "[…] in pSer396 immunoreactivity in NGF-differentiated rat PC12 cells after 4 hrs by Western blot analysis", "type": "functional, cell-based", "details": "TDE = time-dependent effect"}, "[16]": {"system": "Rattus norvegicus", "assay": "Increase in O-GlcNAc immunoreactivity in Sprague-Dawley rat brain CA1 region at 200 mg/kg, po by […]", "type": "functional, organism-based", "parameters": "dose 200 mg/kg"}, "[17]": {"system": "Rattus norvegicus", "assay": "Reduction in tau protein phosphorylation at Thr231 in Sprague-Dawley rat brain CA1 region at 200 mg/kg, po by […]", "type": "functional, organism-based", "parameters": "dose 200 mg/kg"}, "[18]": {"system": "Rattus norvegicus", "assay": "Increase in O-GlcNAc immunoreactivity in Sprague-Dawley rat brain nucleus at 200 mg/kg, po by […]", "type": "functional, organism-based", "parameters": "dose 200 mg/kg"}, "[19]": {"system": "Rattus norvegicus", "assay": "Increase in O-GlcNAc immunoreactivity in Sprague-Dawley rat brain perikaryon at 200 mg/kg, po by […]", "type": "functional, organism-based", "parameters": "dose 200 mg/kg"}, "[20]": {"system": "Rattus norvegicus", "assay": "Decrease in pSer396 immunoreactivity in Sprague-Dawley rat brain epitops of CA1 region at 200 mg/kg, po by […]", "type": "functional, organism-based", "parameters": "dose 200 mg/kg"}, "[21]": {"system": "Rattus norvegicus", "assay": "Decrease in pThr231 immunoreactivity in Sprague-Dawley rat brain epitops of CA1 region at 200 mg/kg, po by […]", "type": "functional, organism-based", "parameters": "dose 200 mg/kg"}, "[22]": {"system": "Rattus norvegicus", "assay": "Decrease in pSer396 immunoreactivity in Sprague-Dawley rat brain pyramidal cell layer of CA1 region at 200 mg/kg, po by […]", "type": "functional, organism-based", "parameters": "dose 200 mg/kg"}, "[23]": {"system": "Rattus norvegicus", "assay": "Decrease in pThr231 immunoreactivity in Sprague-Dawley rat brain pyramidal cell layer of CA1 region at 200 mg/kg, po by […]", "type": "functional, organism-based", "parameters": "dose 200 mg/kg"}, "[24]": {"species_on_record": "Homo sapiens", "assay": "Selectivity for human O-GlcNAcase over human lysosomal beta-hexosaminidase"}, "[25]": {"biological_target": "T3, Protein O-GlcNAcase (Homo sapiens, UniProt O60502)", "T3 sequence (O60502 whole entry)": "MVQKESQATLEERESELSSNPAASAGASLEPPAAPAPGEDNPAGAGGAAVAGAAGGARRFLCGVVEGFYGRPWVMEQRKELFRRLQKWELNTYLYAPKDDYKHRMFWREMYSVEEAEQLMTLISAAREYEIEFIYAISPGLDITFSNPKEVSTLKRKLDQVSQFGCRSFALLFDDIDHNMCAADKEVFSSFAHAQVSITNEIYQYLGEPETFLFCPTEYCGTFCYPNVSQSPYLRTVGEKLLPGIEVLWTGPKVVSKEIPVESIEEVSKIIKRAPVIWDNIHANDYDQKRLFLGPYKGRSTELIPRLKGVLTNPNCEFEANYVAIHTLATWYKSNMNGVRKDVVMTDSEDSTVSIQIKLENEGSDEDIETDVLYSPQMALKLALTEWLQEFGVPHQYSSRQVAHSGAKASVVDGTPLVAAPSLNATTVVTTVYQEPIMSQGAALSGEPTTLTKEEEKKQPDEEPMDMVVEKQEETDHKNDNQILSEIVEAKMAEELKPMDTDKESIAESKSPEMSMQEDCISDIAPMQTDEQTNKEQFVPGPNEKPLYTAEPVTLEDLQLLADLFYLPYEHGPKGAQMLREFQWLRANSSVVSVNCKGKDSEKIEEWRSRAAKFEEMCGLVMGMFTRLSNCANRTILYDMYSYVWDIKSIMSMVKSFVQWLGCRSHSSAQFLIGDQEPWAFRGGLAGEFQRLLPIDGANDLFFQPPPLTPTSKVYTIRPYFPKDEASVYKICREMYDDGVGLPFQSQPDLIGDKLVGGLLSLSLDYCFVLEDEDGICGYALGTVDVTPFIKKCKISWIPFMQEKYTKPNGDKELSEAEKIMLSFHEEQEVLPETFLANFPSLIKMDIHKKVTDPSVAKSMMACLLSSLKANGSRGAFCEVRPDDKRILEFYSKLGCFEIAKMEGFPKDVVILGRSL", "assay": "Inhibition of human O-GlcNAcase"}}, "note": "The source made the active and inactive calls. No cut-off for these calls is given here."}
{"smiles": "CCNC1=N[C@@H]2[C@@H](O)[C@H](O)[C@@H](CO)O[C@@H]2S1", "values": [{"measurement": "inhibition", "setting": "[1]", "result": "inactive"}, {"measurement": "inhibition", "setting": "[2]", "result": "inactive"}, {"measurement": "inhibition", "setting": "[3]", "result": "inactive"}, {"measurement": "Ki", "setting": "[4]", "result": 750000, "unit": "nM"}, {"measurement": "Activity", "setting": "[5]", "result": "Active"}, {"measurement": "inhibition", "setting": "[6]", "result": "inactive"}, {"measurement": "inhibition", "setting": "[7]", "result": "inactive"}, {"measurement": "Activity", "setting": "[8]", "result": "Dose-dependent effect"}, {"measurement": "EC50", "setting": "[9]", "result": 30, "unit": "nM"}, {"measurement": "Activity", "setting": "[10]", "result": "tde"}, {"measurement": "Activity", "setting": "[11]", "result": "tde"}, {"measurement": "inhibition", "setting": "[12]", "result": "inactive"}, {"measurement": "Activity", "setting": "[13]", "result": "Dose-dependent effect"}, {"measurement": "Activity", "setting": "[14]", "result": "Active"}, {"measurement": "Activity", "setting": "[15]", "result": "tde"}, {"measurement": "Activity", "setting": "[16]", "result": "Active"}, {"measurement": "Activity", "setting": "[17]", "result": "Active"}, {"measurement": "Activity", "setting": "[18]", "result": "Active"}, {"measurement": "Activity", "setting": "[19]", "result": "Active"}, {"measurement": "Activity", "setting": "[20]", "result": "Active"}, {"measurement": "Activity", "setting": "[21]", "result": "Active"}, {"measurement": "Activity", "setting": "[22]", "result": "Active"}, {"measurement": "Activity", "setting": "[23]", "result": "Active"}]}
{"smiles": "CCCC1=N[C@@H]2[C@@H](O)[C@H](O)[C@@H](CO)O[C@@H]2S1", "values": [{"measurement": "fold change (FC)", "setting": "[24]", "result": 800}, {"measurement": "Ki", "setting": "[25]", "result": 600, "unit": "nM"}]}
{"smiles": "CC(=O)N[C@H]1c2nc(CC(=O)O)cn2[C@H](CO)[C@@H](O)[C@@H]1O", "values": [{"measurement": "Ki", "setting": "[25]", "result": 420, "unit": "nM"}]}
